Data published in patent US20250263408A1 (Uniquest Pty Ltd, priority 2022, published 2025).

Legend:
Ba/F3-Syk cells = target: T1, Ba/F3-Syk cells (Homo sapiens, UniProt P43405); experiment: Ba/F3 Proliferation Assay, Ba/F3-Syk cells (Resazurin); format: cell-based; settings: 48-hour incubation
T1 construct: fused on or other part: Possible but unprinted fusion partner: TEL (ETV6), the usual partner for Ba/F3 lines transformed by Syk; Nothing on a partner is printed

[1] = test system: Ba/F3-WT (wild type) cells; experiment: Ba/F3 Proliferation Assay, Ba/F3-WT (wild type) cells with mIL-3 (Resazurin); format: cell-based; settings: Ba/F3-WT cells +mIL-3, 48-hour incubation

CC[C@H](C)n1cc(-c2cc3ncccc3c(OC[C@@H]3CNCCO3)n2)cn1 [Compound 6.34, 7-{1-[(2S)-butan-2-yl]-1H-pyrazol-4-yl}-5-{[(2S)-morpholin-2-yl]methoxy}-1,6-naphthyridine]
EC50 (Ba/F3-Syk cells): 91.8 nM
EC50 ([1]; Mus musculus, BaF3, 48 h): 2080 nM

C=Cc1cnc2cc(-c3cnn(C(C)(C)C)c3)nc(OC[C@@H]3CNCC(C)(C)O3)c2c1 (stereo in doubt) [Compound 14.8, 7-(1-tert-butyl-1H-pyrazol-4-yl)-5-[(6,6-dimethylmorpholin-2-yl)methoxy]-3-ethenyl-1,6-naphthyridine]
EC50 (Ba/F3-Syk cells): 1170 nM
EC50 ([1]; Mus musculus, BaF3, 48 h): > 10000 nM

COCCn1ccc(-c2cc(OC[C@@H]3CNCC4(CCC4)O3)c3nccnc3c2)c1 [Compound 8.18, 7-[1-(2-methoxyethyl)-1H-pyrrol-3-yl]-5-{[(6S)-5-oxa-8-azaspiro[3.5]nonan-6-yl]methoxy}quinoxaline]
EC50 (Ba/F3-Syk cells): 8.4 nM
EC50 ([1]; Mus musculus, BaF3, 48 h): 335 nM

CC1(C)CNC[C@@H](COc2nc(-c3cnn(CC4CC(F)(F)C4)c3)cc3ncccc23)O1 [Compound 6.38, 7-{1-[(3,3-difluorocyclobutyl)methyl]-1H-pyrazol-4-yl}-5-{[(2S)-6,6-dimethylmorpholin-2-yl]methoxy}-1,6-naphthyridine]
EC50 (Ba/F3-Syk cells): 25.9 nM
EC50 ([1]; Mus musculus, BaF3, 48 h): 972 nM

CC1(C)CNC[C@@H](COc2cc(-c3cnn4c3CCCC4)cc3ncccc23)O1 [Compound 11.2, 5-{[(2S)-6,6-dimethylmorpholin-2-yl]methoxy}-7-{4H,5H,6H,7H-pyrazolo[1,5-a]pyridin-3-yl}quinoline]
EC50 (Ba/F3-Syk cells): 637 nM
EC50 ([1]; Mus musculus, BaF3, 48 h): 8460 nM

c1cnc2cc(-c3ccn(CC4CC4)c3)nc(OC[C@@H]3CNCCO3)c2c1 [Compound 6.4, 7-[1-(cyclopropylmethyl)-1H-pyrrol-3-yl]-5-{[(2S)-morpholin-2-yl]methoxy}-1,6-naphthyridine]
EC50 (Ba/F3-Syk cells): 74.8 nM
EC50 ([1]; Mus musculus, BaF3, 48 h): 2650 nM

CCc1ccc(-c2cc3ncccc3c(OC[C@@H]3CNCCO3)n2)s1 [Compound 2.36, 7-(5-ethylthiophen-2-yl)-5-{[(2S)-morpholin-2-yl]methoxy}-1,6-naphthyridine]
EC50 (Ba/F3-Syk cells): 279 nM
EC50 ([1]; Mus musculus, BaF3, 48 h): 2050 nM

CCn1ccc(-c2cc(OC[C@@H]3CNCC4(CCC4)O3)c3nccnc3c2)c1 [Compound 8.16, 7-(1-ethyl-1H-pyrrol-3-yl)-5-{[(6S)-5-oxa-8-azaspiro[3.5]nonan-6-yl]methoxy}quinoxaline]
EC50 (Ba/F3-Syk cells): 9.4 nM
EC50 ([1]; Mus musculus, BaF3, 48 h): 822 nM

Cc1cnc2cc(-c3cnn(C(C)C)c3)nc(OC[C@@H]3CNCC(C)(C)O3)c2c1 [Compound 14.10, 5-{[(2S)-6,6-dimethylmorpholin-2-yl]methoxy}-3-methyl-7-[1-(propan-2-yl)-1H-pyrazol-4-yl]-1,6-naphthyridine]
EC50 (Ba/F3-Syk cells): 44.9 nM
EC50 ([1]; Mus musculus, BaF3, 48 h): 1070 nM

CC1(C)CNC[C@@H](COc2cc(-c3cnn(C4CCC4)c3)cc3ncccc23)O1 [Compound 3.13, 7-(1-cyclobutyl-1H-pyrazol-4-yl)-5-{[(2S)-6,6-dimethylmorpholin-2-yl]methoxy}quinoline]
EC50 (Ba/F3-Syk cells): 35.8 nM
EC50 ([1]; Mus musculus, BaF3, 48 h): 814 nM

c1cnc2cc(-c3ccn(C4CCC4)c3)nc(OC[C@@H]3CNCCO3)c2c1 [Compound 6.3, 7-(1-cyclobutyl-1H-pyrrol-3-yl)-5-{[(2S)-morpholin-2-yl]methoxy}-1,6-naphthyridine]
EC50 (Ba/F3-Syk cells): 51.9 nM
EC50 ([1]; Mus musculus, BaF3, 48 h): 2460 nM

C[C@@H]1O[C@@H](COc2nc(-c3cnn(C(C)(C)C)c3)cc3ncccc23)CN[C@@H]1C (racemic) [Compound 2.80, 7-(1-tert-butyl-1H-pyrazol-4-yl)-5-{[rel-(2S,5S,6R)-5,6-dimethylmorpholin-2-yl]methoxy}-1,6-naphthyridine]
EC50 (Ba/F3-Syk cells): 36 nM
EC50 ([1]; Mus musculus, BaF3, 48 h): 1600 nM

CC(C)n1cc(-c2cc3ncccc3c(OC[C@@]3(C)CNCCO3)n2)cn1 [Compound 10.8, 5-{[(2R)-2-methylmorpholin-2-yl]methoxy}-7-[1-(propan-2-yl)-1H-pyrazol-4-yl]-1,6-naphthyridine]
EC50 (Ba/F3-Syk cells): 81.1 nM
EC50 ([1]; Mus musculus, BaF3, 48 h): 1900 nM

CC[C@H](C)n1cc(-c2cc3ncccc3c(OC[C@@H]3CNCC(C)(C)O3)n2)cn1 [Compound 6.35, 7-{1-[(2S)-butan-2-yl]-1H-pyrazol-4-yl}-5-{[(2S)-6,6-dimethylmorpholin-2-yl]methoxy}-1,6-naphthyridine]
EC50 (Ba/F3-Syk cells): 23.6 nM
EC50 ([1]; Mus musculus, BaF3, 48 h): 2300 nM

CC1(C)CNC[C@@H](COc2nc(-c3cnn(CC4CC4)c3)cc3ncccc23)O1 [Compound 6.21, 7-[1-(cyclopropylmethyl)-1H-pyrazol-4-yl]-5-{[(2S)-6,6-dimethylmorpholin-2-yl]methoxy}-1,6-naphthyridine]
EC50 (Ba/F3-Syk cells): 12.6 nM
EC50 ([1]; Mus musculus, BaF3, 48 h): 1510 nM

Cn1ccc(-c2cc(OC[C@@H]3CNCC4(CCC4)O3)c3cccnc3c2)c1 [Compound 11.6, 7-(1-methyl-1H-pyrrol-3-yl)-5-{[(6S)-5-oxa-8-azaspiro[3.5]nonan-6-yl]methoxy}quinoline]
EC50 (Ba/F3-Syk cells): 33.4 nM
EC50 ([1]; Mus musculus, BaF3, 48 h): 1790 nM

FC(F)c1csc(-c2cc(OC[C@@H]3CNCCO3)c3cccnc3c2)c1 [Compound 14.4, 7-[4-(difluoromethyl)thiophen-2-yl]-5-{[(2S)-morpholin-2-yl]methoxy}quinoline]
EC50 (Ba/F3-Syk cells): 196 nM
EC50 ([1]; Mus musculus, BaF3, 48 h): 1900 nM

Cn1cc(-c2cc(OC[C@@H]3CNCC4(CC4)O3)c3nccnc3c2)cn1 [Compound 12.1, 7-(1-methyl-1H-pyrazol-4-yl)-5-{[(5S)-4-oxa-7-azaspiro[2.5]octan-5-yl]methoxy}quinoxaline]
EC50 (Ba/F3-Syk cells): 214 nM
EC50 ([1]; Mus musculus, BaF3, 48 h): > 10000 nM

F/C=C/n1cc(-c2cc3ncccc3c(OC[C@@H]3CNCCO3)n2)cn1 [Compound 6.8, 7-{1-[(1E)-2-fluoroethenyl]-1H-pyrazol-4-yl}-5-{[(2S)-morpholin-2-yl]methoxy}-1,6-naphthyridine]
EC50 (Ba/F3-Syk cells): 181 nM
EC50 ([1]; Mus musculus, BaF3, 48 h): 4880 nM

F/C=C\n1cc(-c2cc3ncccc3c(OC[C@@H]3CNCCO3)n2)cn1 [Compound 6.7, 7-{1-[(1Z)-2-fluoroethenyl]-1H-pyrazol-4-yl}-5-{[(2S)-morpholin-2-yl]methoxy}-1,6-naphthyridine]
EC50 (Ba/F3-Syk cells): 113 nM
EC50 ([1]; Mus musculus, BaF3, 48 h): 3400 nM

Cn1cc(-c2cc3ncccc3c(OC[C@@H]3CNCC(C)(C)CO3)n2)cn1 [Compound 10.10, 5-{[(2S)-6,6-dimethyl-1,4-oxazepan-2-yl]methoxy}-7-(1-methyl-1H-pyrazol-4-yl)-1,6-naphthyridine]
EC50 (Ba/F3-Syk cells): 271 nM
EC50 ([1]; Mus musculus, BaF3, 48 h): 3680 nM

CC(C)n1cc(-c2cc(OC[C@@H]3CNC[C@@H](C)O3)c3nccnc3c2)cn1 [Compound 12.6, 5-{[(2S,6R)-6-methylmorpholin-2-yl]methoxy}-7-[1-(propan-2-yl)-1H-pyrazol-4-yl]quinoxaline]
EC50 (Ba/F3-Syk cells): 9.9 nM
EC50 ([1]; Mus musculus, BaF3, 48 h): 478 nM

C[C@@H]1NCCO[C@@H]1COc1nc(-c2ccn(C)c2)cc2ncccc12 [Compound 13.5, 7-(1-methyl-1H-pyrrol-3-yl)-5-{[(2S,3S)-3-methylmorpholin-2-yl]methoxy}-1,6-naphthyridine]
EC50 (Ba/F3-Syk cells): 51.7 nM
EC50 ([1]; Mus musculus, BaF3, 48 h): 6310 nM

Cn1cc(-c2cc3ncccc3c(OC[C@@H]3CN[C@@H]4CCC[C@@H]4O3)n2)cn1 (relative stereo) [Compound 2.54, 5-{[rel-(2S,4aR,7aS)-octahydrocyclopenta[b][1,4]oxazin-2-yl]methoxy}-7-(1-methyl-1H-pyrazol-4-yl)-1,6-naphthyridine]
EC50 (Ba/F3-Syk cells): 288 nM
EC50 ([1]; Mus musculus, BaF3, 48 h): 1580 nM

CC[C@@H](C)n1cc(-c2cc3ncccc3c(OC[C@@H]3CNCC(C)(C)O3)n2)cn1 [Compound 6.33, 7-{1-[(2R)-butan-2-yl]-1H-pyrazol-4-yl}-5-{[(2S)-6,6-dimethylmorpholin-2-yl]methoxy}-1,6-naphthyridine]
EC50 (Ba/F3-Syk cells): 49.3 nM
EC50 ([1]; Mus musculus, BaF3, 48 h): 3760 nM

CCn1ccc(-c2cc(OC[C@@H]3CNCC(C)(C)O3)c3nccnc3c2)c1 [Compound 8.21, 5-{[(2S)-6,6-dimethylmorpholin-2-yl]methoxy}-7-(1-ethyl-1H-pyrrol-3-yl)quinoxaline]
EC50 (Ba/F3-Syk cells): 10 nM
EC50 ([1]; Mus musculus, BaF3, 48 h): 951 nM

FC1(F)CC1n1ccc(-c2cc3ncccc3c(OC[C@@H]3CNCCO3)n2)c1 (stereo partly drawn) [Compound 6.17, 7-[1-(2,2-difluorocyclopropyl)-1H-pyrrol-3-yl]-5-{[(2S)-morpholin-2-yl]methoxy}-1,6-naphthyridine]
EC50 (Ba/F3-Syk cells): 79.9 nM
EC50 ([1]; Mus musculus, BaF3, 48 h): 2400 nM

CC(C)n1ccc(-c2cc3ncccc3c(OC[C@@H]3CNCCCO3)n2)c1 [Compound 6.24, 5-{[(2S)-1,4-oxazepan-2-yl]methoxy}-7-[1-(propan-2-yl)-1H-pyrrol-3-yl]-1,6-naphthyridine]
EC50 (Ba/F3-Syk cells): 16.4 nM
EC50 ([1]; Mus musculus, BaF3, 48 h): 2820 nM

CC(C)n1ccc(-c2cc(O[C@H](C)[C@@H]3CNCCO3)c3cccnc3c2)c1 [Compound 7.19, 5-[(1R)-1-[(2S)-morpholin-2-yl]ethoxy]-7-[1-(propan-2-yl)-1H-pyrrol-3-yl]quinoline]
EC50 (Ba/F3-Syk cells): 36.3 nM
EC50 ([1]; Mus musculus, BaF3, 48 h): 1870 nM

CC(C)n1ccc(-c2cc(O[C@H](C)[C@@H]3CNCCO3)c3nccnc3c2)c1 [Compound 8.13]
EC50 (Ba/F3-Syk cells): 7.3 nM
EC50 [1]: 371 nM

FC1(F)CC1n1ccc(-c2cc(OC[C@@H]3CNCCO3)c3cccnc3c2)c1 (stereo partly drawn) [Compound 7.7, 7-[1-(2,2-difluorocyclopropyl)-1H-pyrrol-3-yl]-5-{[(2S)-morpholin-2-yl]methoxy}quinoline]
EC50 (Ba/F3-Syk cells): 86.5 nM
EC50 ([1]; Mus musculus, BaF3, 48 h): 4330 nM

CC(F)(F)Cn1ccc(-c2cc3ncccc3c(OC[C@@H]3CNCCO3)n2)c1 [Compound 6.43, 7-[1-(2,2-difluoropropyl)-1H-pyrrol-3-yl]-5-{[(2S)-morpholin-2-yl]methoxy}-1,6-naphthyridine]
EC50 (Ba/F3-Syk cells): 14.9 nM
EC50 ([1]; Mus musculus, BaF3, 48 h): > 1000 nM

CC1(Cn2cc(-c3cc4ncccc4c(OC[C@@H]4CNCCO4)n3)cn2)COC1 [Compound 6.36]
EC50 (Ba/F3-Syk cells): 81.6 nM
EC50 ([1]; Mus musculus, BaF3, 48 h): 1390 nM

Cc1ccnc2cc(-c3cnn(C(C)(C)C)c3)cc(OC[C@@H]3CNCC(C)(C)O3)c12 [Compound 14.9, 7-(1-tert-butyl-1H-pyrazol-4-yl)-5-{[(2S)-6,6-dimethylmorpholin-2-yl]methoxy}-4-methylquinoline]
EC50 (Ba/F3-Syk cells): 5.9 nM
EC50 ([1]; Mus musculus, BaF3, 48 h): 1220 nM
